Patent US20090143285A1, “TARGET PROTEIN AND TARGET GENE FOR DRUG DISCOVERY AND SCREENING METHOD” (REVERSE PROTEOMICS RESEARCH INSTITUTE CO., LTD., priority 2005, published 2009)
Entries after “also recorded” stand apart in the source; their conditions may differ.

Legend:
FLJ38531-derived protein = biological target: T1, FLJ38531-derived protein (Homo sapiens, UniProt Q9BVM4); test: SEC/MS interaction analysis, FLJ38531-derived protein (hypothetical protein BC004360); format: binding; details: spin column method; doses of both compound and protein varied
T1 construct: His-tag (N); made in house; host or cells: Escherichia coli BL21star(DE3)pLysS
T1 sequence (Q9BVM4 1-153): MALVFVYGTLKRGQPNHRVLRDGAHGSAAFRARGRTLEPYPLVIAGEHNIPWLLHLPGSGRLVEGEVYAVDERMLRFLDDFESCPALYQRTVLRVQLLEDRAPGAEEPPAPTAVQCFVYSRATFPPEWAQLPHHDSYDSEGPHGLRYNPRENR
Excerpt: (§1) To analyze the interactions between commonly used drugs and proteins expressed from human full-length cDNA clones while keeping both the proteins and the compounds in non-modified, non-immobilized state, size exclusion chromatography (SEC) and mass analysis were used in combination. The specific procedures are shown below.
(§2) The compound-protein mixture prepared in step 1 was subjected to chromatography using an SEC column, the compound and the protein were separated by SEC, and the compound that interacted with the bound compound or protein contained in the protein fraction was analyzed using a mass analyzer.
(§3) Protein concentrations were measured using BCA Protein Assay (PIERCE), in consideration of the purity calculated by SDS-PAGE.
(§4) Mass analysis was performed using LCQ DECA XP (Thermoelectron) or Q-TOF micro (Micromass), equipped with an ESI probe. The LC pump used was Agilent 1100 (Yokogawa Analytical Systems), and the autosampler used was HTC-PAL (CTC Analytics) equipped with a cooling stacker. The SEC column used was a micro-LC column or a 384-well spin column. […]
(§5) In the 384-well spin column method, Unifilter 100 (Whatman), packed with 10 μL (dry volume) of Bio-Gel P6 (BIO-RAD) and swollen with milliQ water, was used as the SEC column. […] The SEC spin column was mounted on an acetonitrile-aliquoted 384-well U-bottom plate and centrifuged; the SEC spin column filtrate, which is a protein fraction, was recovered in 50% acetonitrile. The protein precipitate produced by the acetonitrile was removed via centrifugation and filtration for deproteinization; the resulting filtrate was concentrated by centrifugal concentration and re-dissolved in 10 μL of 50% methanol to obtain a mass analysis sample. The mobile phase supplied to the mass analyzer was 0.1% formic acid/50% methanol solution in the positive ion mode, and 0.1% ammonia/50% methanol solution in the negative ion mode; these mobile phases were used at a flow rate of 40 μL/min. 2-μL of mass analysis samples were injected using an autosampler at 2-minute intervals; the mass spectral intensity of the compound was measured to retrieve the spectral intensity of the pharmaceutical compound contained in the SEC spin column filtrate (protein fraction eluted from SEC).

[1] = system: FLJXXXXX-derived proteins; test: SEC/MS spin column interaction analysis of FLJXXXXX-derived proteins and various compounds (Tables 30-1 to 30-4); format: binding, human; details: SEC spin column filtrate, spectral intensity increased with doses of compound and protein
FLJ41991-derived protein = biological target: T2, FLJ41991-derived protein (Homo sapiens, UniProt P57764, E293G); test: SEC/MS interaction analysis, FLJ41991-derived protein (GSDMDC1); format: binding
T2 construct: His-tag (N); made in house; host or cells: Escherichia coli BL21star(DE3)pLysS (pDEST17)
T2 sequence (P57764 265-484 E293G): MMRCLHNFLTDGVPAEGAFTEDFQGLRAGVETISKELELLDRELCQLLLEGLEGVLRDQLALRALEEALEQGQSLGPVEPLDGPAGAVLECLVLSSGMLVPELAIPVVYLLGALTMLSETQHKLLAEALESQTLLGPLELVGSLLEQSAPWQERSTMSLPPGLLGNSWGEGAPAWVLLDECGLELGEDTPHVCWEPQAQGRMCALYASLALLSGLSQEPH
Excerpt: as §1, §2, §3, §4, §5

FLJ10420-derived protein = biological target: T3, FLJ10420-derived protein (Homo sapiens, UniProt Q9NVZ3, T157A); test: SEC/MS interaction analysis, FLJ10420-derived protein (hypothetical protein FLJ10420); format: binding
T3 construct: His-tag (N); made in house; host or cells: Escherichia coli BL21star(DE3)pLysS
T3 sequence (Q9NVZ3 1-263 T157A): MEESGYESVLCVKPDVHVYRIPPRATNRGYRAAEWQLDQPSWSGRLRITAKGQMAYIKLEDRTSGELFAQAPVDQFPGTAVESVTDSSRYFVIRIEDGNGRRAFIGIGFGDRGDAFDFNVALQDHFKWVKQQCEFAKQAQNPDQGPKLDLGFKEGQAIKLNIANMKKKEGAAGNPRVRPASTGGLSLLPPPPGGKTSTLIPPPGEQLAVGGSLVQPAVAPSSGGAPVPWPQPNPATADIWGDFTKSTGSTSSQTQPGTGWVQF
Excerpt: as §1, §2, §3, §4, §5

[2] = compound 12.5 μM, protein 10 μM
[3] = compound 62.5 μM, protein 10 μM
[4] = spin column method, doses of both compound and protein varied

CCn1cc(C(=O)O)c(=O)c2ccc(C)nc21 [nalidixic acid]
interaction judged from spectrum intensity of the compound in the SEC spin column filtrate (protein fraction eluted from SEC) (FLJ38531-derived protein): concentration-dependent interaction | FLJ No of the derived protein with which the compound was judged to exhibit a concentration-dependent interaction [1]: FLJ38531

CCN(CC)CCCC(C)Nc1c2ccc(Cl)cc2nc2ccc(OC)cc12 (centres unmarked) [quinacrine]
spectrum intensity of the compound in the SEC spin column filtrate (FLJ41991-derived protein; compound 12.5 μM, protein 0 μM): 36421 | spectrum intensity of the compound in the SEC spin column filtrate (FLJ41991-derived protein; compound 12.5 μM, protein 5 μM): 77607 | spectrum intensity of the compound in the SEC spin column filtrate (FLJ41991-derived protein; [2]): 225680 | spectrum intensity of the compound in the SEC spin column filtrate (FLJ41991-derived protein; compound 12.5 μM, protein 25 μM): 439131 | spectrum intensity of the compound in the SEC spin column filtrate (FLJ41991-derived protein; compound 25 μM, protein 0 μM): 40978 | spectrum intensity of the compound in the SEC spin column filtrate (FLJ41991-derived protein; compound 25 μM, protein 5 μM): 125609 | spectrum intensity of the compound in the SEC spin column filtrate (FLJ41991-derived protein; compound 25 μM, protein 10 μM): 481486 | spectrum intensity of the compound in the SEC spin column filtrate (FLJ41991-derived protein; compound 25 μM, protein 25 μM): 457713 | spectrum intensity of the compound in the SEC spin column filtrate (FLJ41991-derived protein; compound 62.5 μM, protein 0 μM): 123977 | spectrum intensity of the compound in the SEC spin column filtrate (FLJ41991-derived protein; compound 62.5 μM, protein 5 μM): 598920 | spectrum intensity of the compound in the SEC spin column filtrate (FLJ41991-derived protein; [3]): 1080431 | spectrum intensity of the compound in the SEC spin column filtrate (FLJ41991-derived protein; compound 62.5 μM, protein 25 μM): 1854355 | interaction judged from spectrum intensity of the compound in the SEC spin column filtrate (protein fraction eluted from SEC) (FLJ41991-derived protein; [4]): concentration-dependent interaction | FLJ No of the derived protein with which the compound was judged to exhibit a concentration-dependent interaction [1]: FLJ37909; also recorded: FLJ41991

COc1ccc(C(=O)NCc2cccnc2)cc1C(=O)NCc1cccnc1 [picotamide]
spectrum intensity of the compound in the SEC spin column filtrate (FLJ10420-derived protein; compound 12.5 μM, protein 0 μM): 412892 | spectrum intensity of the compound in the SEC spin column filtrate (FLJ10420-derived protein; compound 12.5 μM, protein 5 μM): 323916 | spectrum intensity of the compound in the SEC spin column filtrate (FLJ10420-derived protein; [2]): 294069 | spectrum intensity of the compound in the SEC spin column filtrate (FLJ10420-derived protein; compound 12.5 μM, protein 15 μM): 237571 | spectrum intensity of the compound in the SEC spin column filtrate (FLJ10420-derived protein; compound 25 μM, protein 0 μM): 441470 | spectrum intensity of the compound in the SEC spin column filtrate (FLJ10420-derived protein; compound 25 μM, protein 5 μM): 490309 | spectrum intensity of the compound in the SEC spin column filtrate (FLJ10420-derived protein; compound 25 μM, protein 10 μM): 647010 | spectrum intensity of the compound in the SEC spin column filtrate (FLJ10420-derived protein; compound 25 μM, protein 15 μM): 496587 | spectrum intensity of the compound in the SEC spin column filtrate (FLJ10420-derived protein; compound 62.5 μM, protein 0 μM): 841101 | spectrum intensity of the compound in the SEC spin column filtrate (FLJ10420-derived protein; compound 62.5 μM, protein 5 μM): 1376939 | spectrum intensity of the compound in the SEC spin column filtrate (FLJ10420-derived protein; [3]): 1450464 | spectrum intensity of the compound in the SEC spin column filtrate (FLJ10420-derived protein; compound 62.5 μM, protein 15 μM): 1862334 | interaction judged from spectrum intensity of the compound in the SEC spin column filtrate (protein fraction eluted from SEC) (FLJ10420-derived protein; [4]): concentration-dependent interaction | FLJ No of the derived protein with which the compound was judged to exhibit a concentration-dependent interaction [1]: FLJ10420

CN(C(=O)CN(CCO)CC(=O)N(C)C(C)(C)Cc1ccccc1)C(C)(C)Cc1ccccc1 [oxethazaine]
FLJ No of the derived protein with which the compound was judged to exhibit a concentration-dependent interaction [1]: FLJ37909

CN1C[C@H](CNC(=O)OCc2ccccc2)C[C@@H]2c3cccc4c3c(cn4C)C[C@H]21 [metergoline]
FLJ No of the derived protein with which the compound was judged to exhibit a concentration-dependent interaction [1]: FLJ37909

C[N+]1(C)CCC(=C(c2ccccc2)c2ccccc2)CC1 [diphemanil]
FLJ No of the derived protein with which the compound was judged to exhibit a concentration-dependent interaction [1]: FLJ36526

CCOc1ccc2ccccc2c1C(=O)N[C@@H]1C(=O)N2[C@@H]1SC(C)(C)[C@@H]2C(=O)O [nafcillin]
FLJ No of the derived protein with which the compound was judged to exhibit a concentration-dependent interaction [1]: FLJ39553

COC(=O)[C@H]1[C@H]2C[C@@H]3c4[nH]c5cc(OC)ccc5c4CCN3C[C@H]2C[C@@H](OC(=O)/C=C/c2cc(OC)c(OC)c(OC)c2)[C@@H]1OC [rescinnamine]
FLJ No of the derived protein with which the compound was judged to exhibit a concentration-dependent interaction [1]: FLJ37909

CC[C@H]1CN2CCc3cc(OC)c(OC)cc3[C@@H]2C[C@@H]1C[C@H]1NCCc2cc(OC)c(OC)cc21 [emetine]
FLJ No of the derived protein with which the compound was judged to exhibit a concentration-dependent interaction [1]: FLJ37909

spiramycin
FLJ No of the derived protein with which the compound was judged to exhibit a concentration-dependent interaction [1]: FLJ21841

Cc1cccc(Nc2ccccc2C(=O)O)c1C [mefenamic acid]
FLJ No of the derived protein with which the compound was judged to exhibit a concentration-dependent interaction [1]: FLJ35353

Cc1cccc(C)c1NC(=O)CN1CCN(CCCC(c2ccc(F)cc2)c2ccc(F)cc2)CC1 [lidoflazine]
FLJ No of the derived protein with which the compound was judged to exhibit a concentration-dependent interaction [1]: FLJ37909

C[C@H]1CC[C@]2(NC1)O[C@H]1C[C@H]3[C@@H]4CC[C@H]5C[C@@H](O)CC[C@]5(C)[C@H]4CC[C@]3(C)[C@H]1[C@@H]2C [tomatidine]
FLJ No of the derived protein with which the compound was judged to exhibit a concentration-dependent interaction [1]: FLJ35353

CN1CCCCC1CCN1c2ccccc2Sc2ccc([S+](C)[O-])cc21 (centres unmarked) [mesoridazine]
FLJ No of the derived protein with which the compound was judged to exhibit a concentration-dependent interaction [1]: FLJ11211

COc1c(O)cc2c(c1O)[C@@H]1O[C@H](CO)[C@@H](O)[C@H](O)[C@H]1OC2=O [bergenin]
FLJ No of the derived protein with which the compound was judged to exhibit a concentration-dependent interaction [1]: FLJ39553

O=C(O)CCCc1ccc(N(CCCl)CCCl)cc1 [chlorambucil]
FLJ No of the derived protein with which the compound was judged to exhibit a concentration-dependent interaction [1]: FLJ23466

CCOC(=O)C1N=C(c2ccccc2F)c2cc(Cl)ccc2NC1=O (centres unmarked) [ethyl loflazepate]
FLJ No of the derived protein with which the compound was judged to exhibit a concentration-dependent interaction [1]: FLJ35353

CN1C(=O)CC(=O)N(c2ccccc2)c2cc(Cl)ccc21 [clobazam]
FLJ No of the derived protein with which the compound was judged to exhibit a concentration-dependent interaction [1]: FLJ35353

CN1CCCC(CC2c3ccccc3Sc3ccccc32)C1 (centres unmarked) [methixene]
FLJ No of the derived protein with which the compound was judged to exhibit a concentration-dependent interaction [1]: FLJ35353

COc1ccc2[nH]c3c(c2c1)CCN=C3C [methoxy-6-harmalan]
FLJ No of the derived protein with which the compound was judged to exhibit a concentration-dependent interaction [1]: FLJ39553

O=c1cc(-c2ccc(O)cc2)oc2cc(O)cc(O)c12 [apigenin]
FLJ No of the derived protein with which the compound was judged to exhibit a concentration-dependent interaction [1]: FLJ39553

CC(C)[C@@]1(NC(=O)[C@@H]2C[C@@H]3c4cccc5[nH]cc(c45)C[C@H]3N(C)C2)O[C@@]2(O)[C@@H]3CCCN3C(=O)[C@H](Cc3ccccc3)N2C1=O [dihydroergocristine]
FLJ No of the derived protein with which the compound was judged to exhibit a concentration-dependent interaction [1]: FLJ37909

CSc1ccc2c(c1)N(CCC1CCCCN1C)c1ccccc1S2 (centres unmarked) [thioridazine]
FLJ No of the derived protein with which the compound was judged to exhibit a concentration-dependent interaction [1]: FLJ37909
